Assay: in vitro
Settings: human, hela cells, % viability

SMILES | viability at 28.5 h, 10 µM [%] | viability at 28.5 h, 10 µM (bulk resorufin, single well) [%]
Cc1cc(NS(=O)(=O)c2ccc(OCCNS(C)(=O)=O)cc2)no1 [CBK268530] | 102 | –
O=C(COc1ccc(S(=O)(=O)N2CCOCC2)cc1)NCc1ccccc1 [CBK268533] | 98.6 | –
Cc1cc(C)n2nc(SCC(=O)O)nc2n1 [CBK268536] | 111 | –
O=C1c2ccccc2C(=O)N1CCCc1nc2c3c4c(sc3ncn2n1)CCCCC4 [CBK268540] | 93.4 | –
COc1cc(C(CC(=O)O)C(=O)O)c([N+](=O)[O-])cc1OC (centres unmarked) [CBK268541] | 96.9 | –
O=C(CSCc1ccc(Cl)c(Cl)c1)Nc1cccnc1 [CBK268542] | 112 | –
O=C(CSCc1ccc(Br)cc1)Nc1cccnc1 [CBK268543] | 104 | –
N=c1c2c(-c3ccccc3)c(-c3ccccc3)n(Cc3ccco3)c2ncn1CCN1CCOCC1 [CBK268545] | 93.5 | –
Cc1ccc(-c2nc3ncccc3o2)cc1NC(=O)c1ccc(-c2cccc([N+](=O)[O-])c2)o1 [CBK268548] | 90.7 | –
CCCCNS(=O)(=O)c1ccc(OCC(=O)O)cc1 [CBK268550] | 99.1 | –
COc1cc(C2C3=C(CC(C)(C)CC3=O)Nc3ncnn32)ccc1OCC(=O)N1CCOCC1 (centres unmarked) [CBK268551] | 102 | –
COC(=O)CC1(CC(=O)OC)C(=O)N(C)C(=O)N(C)C1=O [CBK268554] | – | 98.5
O=C(O)CSc1nnc2n(-c3ccccc3)c3ccccc3n12 [CBK268557] | 106 | –
CCc1c(C)nc(N)nc1N1N=C1SC(C(C)=O)C(C)=O [CBK268558] | 99.4 | –
CCC(c1nc2ccccc2c(=O)n1CCCn1ccnc1)N1C(=O)c2ccccc2C1=O (centres unmarked) [CBK268560] | 107 | –
CCN1CCN(c2nc(N)c3ccccc3n2)CC1 [CBK268561C] | 82.4 | –
O=C(O)Cc1ccc(NC(=O)CN2C(=O)c3ccccc3C2=O)cc1 [CBK268562] | 104 | –
O=C(O)c1cc(NC(=O)C2CC2)cc(C(=O)O)c1 [CBK268564] | 94.3 | –
Cc1ccc([N+](=O)[O-])c(OCCN2CCN(Cc3ccccc3)CC2)c1 [CBK268568G] | 99.2 | –
Cc1ccc(C(=O)NCCC(=O)Nc2ccccc2C)cc1 [CBK268569] | 103 | –
Cc1ccc(SC(C)C(=O)Nn2cnnc2)cc1 (centres unmarked) [CBK268570] | 93.3 | –
O=C(O)COc1ccc(NC(=O)Cc2ccc([N+](=O)[O-])cc2)cc1 [CBK268573] | 104 | –

SMILES | viability at 28.5 h, 10 µM [%] | viability at 28.5 h, 10 µM (bulk resorufin, single well) [%]
O=C(NCCSCc1c(F)cccc1Cl)Nc1cccc(Cl)c1 [CBK268574] | 98.6 | –
Brc1c(OCCNCCN2CCOCC2)ccc2ccccc12 [CBK268576G] | 115 | –
O=C(Nc1ccc(NC(=O)c2cc3ccccc3o2)cc1)c1ccc(-c2cccc([N+](=O)[O-])c2)o1 [CBK268579] | 86.8 | –
Cc1ccc(OCc2nnc(SCC(=O)c3cccc([N+](=O)[O-])c3)n2C)cc1 [CBK268580] | 86.9 | –
Cc1ccc(SCCNCCN2CCOCC2)cc1 [CBK268581G] | 104 | –
CCN1CCN(c2ccc(NC(=S)NC(=O)c3ccccc3Br)cc2)CC1 [CBK268583] | 102 | –
CN(Cc1ccccc1)C(=O)CCNS(=O)(=O)c1ccccc1 [CBK268585] | 103 | –
CN(Cc1ccccc1)C(=O)CNS(=O)(=O)c1ccc([N+](=O)[O-])cc1 [CBK268586] | 107 | –
Cc1nnc2sc(-c3ccc(CNC(=S)NC(=O)c4ccccc4[N+](=O)[O-])cc3)nn12 [CBK268588] | 84.6 | –
Cc1ccc(S(=O)(=O)Cc2ccc(C(=O)Nc3cccc(-c4cnc5ccccc5n4)c3)cc2)cc1 [CBK268589] | 89.3 | –
Cc1ccccc1OCCCNCCN1CCOCC1 [CBK268590C] | 106 | –
COc1c(C(=O)Nc2ccc(CN3CCOCC3)cc2)cc2ccccc2c1Br [CBK268593] | 103 | –
CC(C(=O)Nc1ccc2c(c1)OCO2)N(c1ccc(Cl)cc1)S(C)(=O)=O (centres unmarked) [CBK268595] | 89.5 | –
CCN1CCN(c2c(Cl)cccc2NC(=O)c2ccc(-c3cccc([N+](=O)[O-])c3)o2)CC1 [CBK268596] | 86.4 | –
CN(CC(=O)Nn1cnnc1)S(=O)(=O)c1ccc(Br)cc1 [CBK268597] | 85.9 | –
COc1cc(NC(=O)c2ccc(-c3cc4ccccc4oc3=O)cc2)ccc1NC(=O)C(C)C [CBK268601] | 103 | –
CS(=O)(=O)N1CCN(c2ccc(NC(=O)c3ccc(-c4cccc([N+](=O)[O-])c4)o3)cc2)CC1 [CBK268602] | 98.6 | –
Clc1ccc(SCCCNCCN2CCOCC2)cc1 [CBK268603C] | 90.3 | –
Cc1ccccc1OC(C)C(=O)Nc1nnc[nH]1 (centres unmarked) [CBK268605] | 85.6 | –
O=C(Nc1ccccc1C(=O)N1CCCC1)c1ccccc1CCc1ccccc1 [CBK268608] | 104 | –
Cc1cc(OCc2nnc(SCC(=O)N3CCN(c4ccccc4)CC3)n2C)ccc1Cl [CBK268611] | 104 | –
O=C(Nc1ccc2oc(-c3cccnc3)nc2c1)c1cccc(-c2cc3ccccc3oc2=O)c1 [CBK268612] | 89.3 | –

SMILES | viability at 28.5 h, 10 µM [%] | viability at 28.5 h, 10 µM (bulk resorufin, single well) [%]
O=C(CN1C(=O)c2ccccc2C1=O)Nc1cccc(-c2cnc3ccccc3n2)c1 [CBK268614] | 115 | –
O=C(Nc1nnc[nH]1)c1ccccc1CCc1ccccc1 [CBK268616] | 95.9 | –
Cc1ccccc1OC(C)C(=O)Nn1cnnc1 (centres unmarked) [CBK268619] | 96.2 | –
O=C(CCN1C(=O)c2cccc([N+](=O)[O-])c2C1=O)Nc1cccc(-c2cnc3ccccc3n2)c1 [CBK268620] | 104 | –
CC(=O)Nc1ccccc1NC(=O)c1ccccc1CCc1ccccc1 [CBK268621] | 97.1 | –
O=C(Nc1ccc(N2CCN(Cc3ccccc3)CC2)cc1)c1ccc(-c2ccccc2)cc1 [CBK268622] | 109 | –
Cc1c(NC(=O)c2ccc3c(c2)C(=O)N(Cc2ccco2)C3=O)cccc1C(=O)O [CBK268627] | 92.9 | –
O=[N+]([O-])c1cccc(C(Nc2cccnc2)c2cc(Cl)c3cccnc3c2O)c1 (centres unmarked) [CBK268629] | 93.7 | –
Cc1ccc(S(=O)(=O)Cc2ccc(C(=O)NCc3ccco3)cc2)cc1 [CBK268630] | 105 | –
NCCCNCCOc1ccc(Cl)c(Cl)c1 [CBK268631C] | 111 | –
CC(O)CNCCCOc1ccccc1-c1ccccc1 (centres unmarked) [CBK268633G] | 97.6 | –
CC(C)(C)C1CCc2c(sc(NC(=S)NC(=O)c3cc4ccccc4o3)c2C(N)=O)C1 (centres unmarked) [CBK268635] | 95 | –
Cc1ccc(-c2ccc(CCC(=O)O)n2CC2CCCO2)cc1 (centres unmarked) [CBK268636] | 101 | –
Oc1c(C(Nc2cccnc2)c2cccs2)ccc2cccnc12 (centres unmarked) [CBK268637] | 72.4 | –
Cc1ccc(SC(C)C(=O)Nc2nc[nH]n2)cc1 (centres unmarked) [CBK268638] | 107 | –
O=C(COc1ccccc1[N+](=O)[O-])Nc1cc(-c2nc3cc(Cl)ccc3o2)ccc1Cl [CBK268639] | 116 | –
Cc1ccc(OC(C)C(=O)N(C)c2ccccc2)cc1 (centres unmarked) [CBK268645] | 111 | –
COc1cc(OC)c(NC(=O)C(C)Oc2cccc(C)c2)cc1Cl (centres unmarked) [CBK268646] | 107 | –
COc1cc(NC(=O)COc2cc(C)cc(C)c2)c(C(=O)O)cc1OC [CBK268650] | 93.8 | –
Cc1cccc(NC(=O)Cn2cc(C(=O)COc3ccccc3)c3ccccc32)c1 [CBK268654] | 104 | –
Cc1ccc(SCC(=O)Nc2cc([N+](=O)[O-])ccc2O)cc1 [CBK268655] | 123 | –
O=C(CSCc1ccccc1Cl)Nc1ccc(-c2nnc(-c3ccccc3)o2)cc1 [CBK268656] | 111 | –

SMILES | viability at 28.5 h, 10 µM [%] | viability at 28.5 h, 10 µM (bulk resorufin, single well) [%]
CC(CNC(=O)C(C)Oc1ccccc1)CN(C)C (centres unmarked) [CBK268658] | 94 | –
COc1cccc(C(=O)Nc2ccc(O)cc2C(=O)O)c1 [CBK268662] | 104 | –
O=C(Nc1ccc2oc(-c3cccnc3)nc2c1)c1ccc(N2CCOCC2)c([N+](=O)[O-])c1 [CBK268664] | 100 | –
COc1ccc(-c2noc(CSc3nc4ccccc4c(=O)n3-c3ccccc3)n2)cc1OC [CBK268667] | 100 | –
CCn1c(SCc2nc(-c3ccc(Br)cc3)no2)nnc1-c1c[nH]c2ccccc12 [CBK268668] | 94.3 | –
Cc1ccccc1CSCCNC(=O)Nc1ccc(Cl)cc1 [CBK268669] | 101 | –
CC(=O)Nc1ccc(S(=O)(=O)Nc2ccc(-c3cn4cccnc4n3)cc2)cc1 [CBK268671] | 105 | –
O=C(CCC(=O)c1ccc2c(c1)Cc1ccccc1-2)Nc1ccc(C(=O)O)cc1 [CBK268673] | 110 | –
CN1C=NC2C1C(=O)N(CCn1c(=O)c3c(ncn3C)n(C)c1=O)C(=O)N2C (centres unmarked) [CBK268678] | 101 | –
CSc1ncc(Cl)c(C(=O)NCCc2ccc(S(N)(=O)=O)cc2)n1 [CBK268679] | 104 | –
Cn1c(=O)c2c(nc(NCCN)n2C)n(C)c1=O [CBK268680] | 107 | –
O=C(N1CCCCCC1)N1CCN(S(=O)(=O)N2CCOCC2)CC1 [CBK268681] | 105 | –
COC(=O)c1ccccc1NC(=O)CSc1nc(C)cc(C(F)(F)F)n1 [CBK268682] | 89.1 | –
CC(=O)Nc1ccc(S(=O)(=O)NC2(C(F)(F)F)C(=O)Nc3c2c(=O)[nH]c(=S)n3C2CCCCC2)cc1 (centres unmarked) [CBK268683] | 97.2 | –
O=C1c2cccc3cccc(c23)C(=O)N1CCCSc1nnc(-c2ccncc2)n1-c1ccccc1 [CBK268684] | 91 | –
O=C(CSc1ccc(F)cc1)Nc1cc(Cl)ccc1O [CBK268685] | 87.5 | –
Nc1nc2c(nc(SCCc3ccccc3)n2C2OC(CO)C(O)C2O)c(=O)[nH]1 (centres unmarked) [CBK268686] | 101 | –
Nc1nc(SCc2cccc([N+](=O)[O-])c2)n[nH]1 [CBK268688] | 105 | –
Cc1ccc(-n2c(SCC(=O)Nc3sc4c(c3C#N)CCCC4)nnc2-c2ccccc2O)c(C)c1 [CBK268692] | 77.9 | –
CC1CC(C)CN(CCCNS(=O)(=O)c2ccc3c(c2)oc(=O)n3C)C1 (centres unmarked) [CBK268695] | 104 | –
